Results reported in patent publication US20190307820A1, “COMPOSITIONS AND METHODS OF USING STAT1/3 INHIBITORS WITH ONCOLYTIC HERPES VIRUS” (priority 2016, published 2019).

Assays:
pSTAT3 (Tyr705) = test: Western blot of pSTAT3 (Tyr705) in BV2 microglia cells; format: cell-based, mouse; settings: C16 1 μM
Protocol: BV2 cells were pre-treated with vehicle or C16 (1 μM) for 2 hours and then incubated with vehicle or oHSV-1 (G207) at an MOI of 1 or oHSV-1 and C16 combination for 24 hours. Total protein was harvested and subjected to western blot assay. β-actin expression was used for loading control (means±SE).
BV2 cells were treated with either vehicle or Lps (1 μg/ml) or Lps (1 μg/ml) with C16 (1 μM) for 24 hours. Total protein was harvested and subjected to western blot assay. β-actin expression was used for loading control (means±SE).
Total protein was harvested with sample buffer (125 mM Tris-HCL, 50% Glycerol, […] and 5% 2-mercaptoethanol) and boiled for 5 minutes. Protein samples were subjected to SDS-PAGE (8% gel), transferred to nitrocellulose membranes and blocked in 5% nonfat milk (Bio Rad) in TBS-Tween 20 (TBS-T) for 1 hour at room temperature. […] Band density was measured by using ImageJ software (NIH, Bethesda, Md.).

[1] = system: G207 in U87 and MG co-culture; test: G207 replication in glioma-microglia co-cultures treated with C16; format: cell-based, HSV-1; settings: 0.5 μM of C16
Protocol: FIG. 12B depicts an electrophoresis gel showing total proteins that were harvested from G2O7 infected microglia cells at 24 hours post treatment with either 1 μM of C16, 1 μM of Bay11, or 100 μM of AG. ICP27, ICP4, and […] expression was measured by western blot assay. U87 and MG co-culture were pretreated with 0.5 μM of C16 for 1 hour.
FIG. 12D is a bar graph showing G207 viral replication increasing by 33% in glioma-microglia co-cultures treated with C16.
U87 (5×104) alone or U87+microglia co-culture (5×104+5×104) or BV2 microglia cells (5×104) alone were seeded into a 24-well plate. After overnight incubation (to allow the cells to attach), cells were pretreated with indicated concentration of NFkB inhibitor, Bay-11 (Santa Cruz, Canada) or an indicated concentration of imidazolo-oxindole derivative C16 (Milipore, Canada) or vehicle for 1-2 hours. The cells were then infected with oHSV-1 (G207 or HrR3) virus at a MOI of 1 in presence of chemical inhibitors for another 2 days. The viruses were harvested and titrated in vero cells by plaque forming assay in 12-well plates by triplicates.
The effects of a PKR inhibitor (C16), a NFkappaB inhibitor (Bay11), and an iNOS inhibitor (aminoguanidine hydrochloride) were tested on G207 replication in BV2 cells (Example 15). […]

BTUC cells = test: MTT cytotoxicity assay, BTUC cells; format: cell-based; settings: 72 hours, read-out: Inhibitory concentration 50% (IC50)
Protocol: FIGS. 1A-1B are graphs that show an anti-tumor effect of nifuroxazide. (FIG. 1A) Cells were treated with indicated concentration of nifuroxazide for 72 hours. Cytotoxicity was measured by using MTT assay. (FIG. 1B) Subcutaneously U87 tumor bearing mice were peritoneally injected with indicated doses of nifuroxazide. Tumor size was measured using calipers at day 7 post nifuroxazide treatment.
In this example, the antitumor effect of nifuroxazide is evaluated in different tumor cells. Cells were treated with nifuroxazide for 72 hours (FIG. 1A). […] To verify the anti-tumor efficacy of nifuroxazide in vivo, animals with subcutaneous U87 tumor implants were injected in the peritoneum with vehicle, 1 mg/kg nifuroxazide and 50 mg/kg nifuroxazide. […] Tumor volume was reduced around 25% and 60% after 7 days treatment with 1 mg/kg nifuroxazide and 50 mg/kg nifuroxazide respectively (FIG. 1B).
Cells were seeded in a 96-well plate at a density of 1×104 (U87). After overnight incubation, cells were treated with only vehicle or indicated MOI of virus or indicated concentration of drugs or reagents. After 2 to 3 days of treatment cell viability was measured by MTT assay (Sigma, Canada) according to the manufacturer's instruction. […] After overnight incubation with lysis buffer, cell viability was measured at 595 nm using a plate reader (Envision 2103 Multilabel reader, Perkin Elmer).

| Structure (SMILES) | upregulation of pSTAT3 (Tyr705) induced by oHSV-1 (pSTAT3 (Tyr705); G207 MOI of 1, 24 hours) | STAT 3 phosphorylation, LPS treated (pSTAT3 (Tyr705); Lps 1 μg/ml, 24 hours) | G207 viral replication increased [1] [%] | IC50 (BTUC cells) [µM] |
| --- | --- | --- | --- | --- |
| O=C1Nc2ccc3ncsc3c2/C1=C/c1c[nH]cn1 [C16, 6,8-Dihydro-8-(1H-imidazol-5-ylmethylene)-7H-pyrrolo[2,3-g]benzothiazol-7-one] | significantly suppress the upregulation | inhibition in STAT 1/3 phosphorylation | 33 | – |
| O=C(N/N=C/c1ccc([N+](=O)[O-])o1)c1ccc(O)cc1 [nifuroxazide, Benzoic acid, 4-hydroxy-, [(5-nitro-2-furanyl)metylene]hydrazide] | – | – | – | ~15 |
